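In this assay, cells in 96-well plates receive the compound at five concentrations for 48 hours. Endpoints are linearly interpolated between the surrounding concentrations. GI50: concentration for 50% inhibition of growth. TGI: concentration producing complete growth inhibition.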
How the values were obtained:
Assay in all cases: growth of human tumour cells (NCI), 48 h
[1] = test system: MALME-3M melanoma
[2] = test system: SN12C renal
[3] = test system: HT29 colon
[4] = test system: UO-31 renal
[5] = test system: SNB-75 CNS
[6] = test system: LOX IMVI melanoma
[7] = test system: HOP-92 NSCLC
[8] = test system: OVCAR-5 ovarian
[9] = test system: SK-OV-3 ovarian
[10] = test system: SK-MEL-28 melanoma

Row | Compound | TGI [1] | TGI [2] | TGI [3] | TGI [4] | TGI [5] | TGI [6] | TGI [7] | TGI [8] | TGI [9] | TGI [10] | GI50 [1] | GI50 [2] | GI50 [3] | GI50 [4] | GI50 [5] | GI50 [6] | GI50 [8] | GI50 [9] | GI50 [10]
1 | Nc1ncnc2c1ncn2C1CCC(CO)O1 (configuration not stated) | > 100 µM | > 100 µM | > 67.2 µM | > 100 µM | > 100 µM | > 100 µM | > 86.4 µM | > 100 µM | > 100 µM | > 68.2 µM | – | – | – | – | – | – | – | – | –
2 | CCN(CC)CCCC(Nc1c2ccc(Cl)cc2nc2ccc(OC)cc12)c1ccc(F)cc1 (configuration not stated) | 3.68 µM | 4.68 µM | 9.87 µM | 3.15 µM | 2.66 µM | 3.26 µM | – | 5.6 µM | 15.9 µM | 3.2 µM | 1.99 µM | 2.03 µM | 2.7 µM | 1.56 µM | 1.21 µM | 1.77 µM | 2.04 µM | 4.33 µM | 1.71 µM
3 | Cc1cccc2c(N)c3cccc(C(=O)NCCN(C)C)c3nc12 | 0.606 µM | 0.457 µM | – | 0.81 µM | 0.615 µM | 0.158 µM | 2.94 µM | 0.723 µM | 14.5 µM | 0.482 µM | – | – | – | – | – | – | – | – | –
4 | COc1c2c(cc3c(CCc4ccccc4)cc(=O)oc13)CCC(C)(C)O2 | > 100 µM | > 100 µM | > 100 µM | > 100 µM | > 100 µM | > 100 µM | > 100 µM | > 100 µM | > 100 µM | > 100 µM | – | – | – | – | – | – | – | – | –
5 | CC1=C[C@]2(CC(C)C3C(CC4(C)C5CCC6C(C)(C)C(=O)CC[C@@]67C[C@@]57CC[C@]34C)O2)OC1=O (some centres not stated) | > 100 µM | > 100 µM | > 100 µM | – | 42.1 µM | 46.6 µM | 45.7 µM | > 100 µM | – | > 100 µM | – | – | – | – | – | – | – | – | –
6 | CCOP(=O)(OCC)C(Cc1ccc(OC)c(OC)c1)N=C(c1ccccc1)c1ccccc1 (configuration not stated) | – | > 100 µM | > 100 µM | > 100 µM | 81.1 µM | – | > 100 µM | > 100 µM | – | > 100 µM | – | – | – | – | – | – | – | – | –
7 | CC(C)=CC(=O)OC1C2C(C)C(=O)OC2C(O)C(C)C2C=CC(=O)C21C (configuration not stated) | 8.28 µM | 8.19 µM | 7.94 µM | 10.5 µM | 6.67 µM | 3.44 µM | 8.85 µM | 12.9 µM | 15.3 µM | 3.82 µM | – | – | – | – | – | – | – | – | –
8 | CO/N=C1/c2sccc2[C@H](NC(=O)C(F)(F)F)[C@@H]1O | > 100 µM | > 100 µM | > 100 µM | > 100 µM | > 100 µM | > 100 µM | > 100 µM | > 100 µM | > 100 µM | > 100 µM | – | – | – | – | – | – | – | – | –
